Laboratory results: US8822496B2, “Dosage regimens for HCV combination therapy” (priority 2009, dated 2014)
Counter-ions that a name gives are not always drawn. Like-named read-outs stand apart in the source and are kept apart here.

Key:
HCV genotype-1 [1] = details: for Below Limit of Quantification at D 28 (number of patients) / Below Limit of Quantification at D 28 (percent of patients): less than 25 IU per ml of serum; for Virologic rebound during treatment (patients with rebound/patients in group) / Virologic rebound during treatment: first 28 days
Description: All patients were monitored for safety and tolerability of study drugs. The primary endpoint was a ≧2 log 10 reduction in HCV viral load (VL) from baseline at any time up to Day 28. Plasma HCV-RNA levels were measured using the Roche COBAS® TaqMan® assay (LLOQ 25 IU/mL). The treatment experienced patients in this study included P+R null responders and partial respoders. After Day 28, at the discretion of the investigator, patients could continue to receive standard of care treatment, i.e., P+R.

HCV NS3 protease = HCV NS3 protease inhibitor EC50 (background statement); type: cell-based
HCV genotype-1 [2] = experiment: Clinical study with treatment-naive patients: monotherapy 14 days, then triple combination with P+R 14 days; details: for VL rebound during treatment: first 14 days of monotherapy, all dose groups
Description: Plasma HCV-RNA levels were measured with Roche COBAS® TaqMan® assay (LLOQ 25 IU/m L). After Day 28, at the discretion of the investigator, patients could continue to receive standard of care treatment, i.e., P+R.

[3] = Trough plasma concentration of Compound (1) with or without two-fold first loading dose; type: in vivo, human; details: TE patients; for Mean steady state trough of Days 10-29 / Geometric mean trough plasma concentration: + P+R
From the text: Trough (pre-dose) plasma samples were collected on Days 2, 3, 4, 6, 10, 14, 21, 28 and 29 following the initiation of combination treatment on Day 1.

[4] = 240 mg QD SGC with first 480 mg loading dose, Day 3
[5] = 240 mg QD SGC with first 480 mg loading dose, Day 4
[6] = 240 mg QD SGC with first 480 mg loading dose, Day 6
[7] = 240 mg QD solution (PiB) without loading dose, Day 3
[8] = 240 mg QD solution (PiB) without loading dose, Day 4
[9] = 240 mg QD solution (PiB) without loading dose, Day 6

C=C[C@@H]1C[C@]1(NC(=O)[C@@H]1C[C@H](Oc2cc(-c3csc(NC(=O)C(C)C)n3)nc3c(Br)c(OC)ccc23)CN1C(=O)[C@@H](NC(=O)OC1CCCC1)C(C)(C)C)C(=O)O [Compound (1) sodium salt]
Maximal decline D 1-14 (HCV genotype-1 [1]; 48 mg QD, N = 6, + P+R): 4.4 ×log10
Maximal decline D 1-14 (HCV genotype-1 [1]; 120 mg QD, N = 7, + P+R): 4.5 ×log10
Mean Decline at D 14 (HCV genotype-1 [1]; 120 mg QD, N = 7, + P+R): 4.3 ×log10
Virologic rebound during treatment (HCV genotype-1 [1]; 240 mg qd + P+R, listed as Compound (1) (sodium salt)): no rebound
Serious or severe adverse events (HCV genotype-1 [1]; 48-240 mg qd + P+R, 28 days): no serious or severe adverse events
Discontinuation of treatment due to an AE (HCV genotype-1 [1]; AE: anxiety): One subject discontinued treatment
Tolerability (HCV genotype-1 [1]; treatment-experienced pts, 48-240 mg qd + P+R, 28 days): well tolerated
Serious AE (HCV genotype-1 [2]; 20 mg dose cohort, 6 days after initiating P+R): One serious AE, asthenia
Discontinuation of treatment due to adverse events (HCV genotype-1 [2]; during monotherapy): No pts discontinued treatment
VL rebound during treatment (HCV genotype-1 [2]): a majority of patients
VL rebound during treatment (HCV genotype-1 [2]; listed as Compound (1) (sodium salt)): a majority of the patients
Tolerability (HCV genotype-1 [2]; treatment-naive pts, 20-240 mg qd, monotherapy 14 days then + P+R 14 days): well tolerated

C=C[C@@H]1C[C@]1(NC(=O)[C@@H]1C[C@H](Oc2cc(-c3csc(NC(=O)C(C)C)n3)nc3c(Br)c(OC)ccc23)CN1C(=O)[C@@H](NC(=O)OC1CCCC1)C(C)(C)C)C(=O)O [Compound (1)]
Virologic rebound during treatment (HCV genotype-1 [1]; 240 mg qd + P+R): No rebound
Mean steady state trough of Days 10-29 ([3]; 240 mg QD SGC with first 480 mg loading dose): 5,774
Geometric mean trough plasma concentration [3, 5]: 5,640
Geometric mean trough plasma concentration [3, 6]: 7,060
Geometric mean trough plasma concentration ([3]; 240 mg QD SGC with first 480 mg loading dose, Day 10): 6,580
Geometric mean trough plasma concentration ([3]; 240 mg QD SGC with first 480 mg loading dose, Day 14): 5,590
Geometric mean trough plasma concentration ([3]; 240 mg QD SGC with first 480 mg loading dose, Day 21): 5,410
Geometric mean trough plasma concentration ([3]; 240 mg QD SGC with first 480 mg loading dose, Day 28): 5,960
% of mean steady state trough of Days 10-29 [3, 4]: 81.2%
% of mean steady state trough of Days 10-29 [3, 5]: 97.7%
% of mean steady state trough of Days 10-29 [3, 6]: 122.3%
Geometric mean trough plasma concentration ([3]; 240 mg QD soft gelatin capsules (SGC) with a first 480 mg loading dose, Day 2): 3,470
Geometric mean trough plasma concentration ([3]; 240 mg QD solution (PiB) without a first 480 mg loading dose, Day 2): 710
Geometric mean trough plasma concentration [3, 8]: 2,420
Geometric mean trough plasma concentration [3, 9]: 2,950
Geometric mean trough plasma concentration ([3]; 240 mg QD solution (PiB) without loading dose, Day 10): 2,930
Geometric mean trough plasma concentration ([3]; 240 mg QD solution (PiB) without loading dose, Day 14): 2,850
% of mean steady state trough of Days 10-29 [3, 7]: 49.2%
% of mean steady state trough of Days 10-29 [3, 9]: 87.4%
